Measured values as given in patent publication US7279321B2, “Methods for increasing the resistance of a host cell to aromatic carboxylic acids” (priority 2003, dated 2007).
In brackets after ≈: the same amount, converted by molar mass.

Experiments:
Assay type in all cases: cell-based
[1] = tested on: E. coli strain DPD2433 (yhcS−); assay: pHBA zone of growth inhibition on solidified Vogel-Bonner medium; settings: sodium salt of pHBA 80 μmoles/disk, Vogel-Bonner with glucose
Method: (§4) This was tested by measuring the size of the zone of growth inhibition and scoring the degree of growth within the zones resulting from the sodium salt of pHBA (80 μmoles/disk) on solidified Vogel-Bonner medium with glucose as the carbon source (Table 5).

[2] = tested on: E. coli strain DPD1818 (tolC); assay: Growth in LB medium in the presence of pHBA, scored visually; further: key: ++++ indicates full turbidity; +++ indicates moderate, but visually less than full turbidity; + indicates very slight turbidity; − indicates no turbidity
Source text: (§1) Strain DPD1818 carries a to/C::miniTn10 mutation in the MG1655 background. It was constructed by transduction of E. coli MG1655 using P1clr100 Cm phage grown on E. coli strain DE112 (Van Dyk et al. Appl. Environ. Microbiol. 60:1414-1420 (1994)), which carries a tolC::miniTn10 mutation, and selection for tetracycline resistance. Strain DPD2444, described above, carries a yhcP::TN<Kan> mutation. Strain DP2446 carries both the tolC::miniTn10 and yhcP::TN<Kan>. This strain was constructed using by P1clr100Cm mediated transduction of DE112 with phage grown on strain DPD2443 and selection for kanamycin resistance. Each of these mutant strains was grown overnight in LB medium at 37° C. […] The final volume in the wells of a 96-well microplate was 100 μl and the final dilution of the inoculum was 1 to 1000. This microplate was covered and incubated at 37° C. for 7 hours and then incubated at room temperature for 3 days. The growth in each well was then scored visually.

[3] = tested on: E. coli strain DPD2446 (tolC yhcP); assay: as above; further: key: ++++ indicates full turbidity; +++ indicates moderate, but visually less than full turbidity; + indicates very slight turbidity; − indicates no turbidity
Source text: as §1

[4] = tested on: E. coli strain MG1655 (+); assay: as above
Source text: as §1

[5] = tested on: E. coli strain DPD2444 (yhcP); assay: as above; further: key: ++++ indicates full turbidity; +++ indicates moderate, but visually less than full turbidity; + indicates very slight turbidity; − indicates no turbidity
Source text: as §1

[6] = tested on: E. coli strain DPD3317 (DPD2433 yhcS− with pDEW668 yhcRQP); settings: sodium salt of pHBA 80 μmoles/disk
Source text: (§2) Plasmids pDEW668, pDEW673, pDEW675, and a control plasmid, pTrcHis2TOPO®/lacZ (Invitrogen), were moved by transformation to E. coli strain DPD2433, selecting for Ampicillin resistance, to generate strains DPD3317, DPD2455, DPD2457, and DPD3316, respectively.

[7] = tested on: E. coli strain DPD2457 (DPD2433 yhcS− with pDEW675 yhcRQ); settings: sodium salt of pHBA 80 μmoles/disk
Source text: as §2

[8] = tested on: E. coli strain DPD2455 (DPD2433 yhcS− with pDEW673 yhcQP); settings: sodium salt of pHBA 80 μmoles/disk
Source text: as §2

[9] = tested on: E. coli strain DPD3316 (DPD2433 yhcS− with pTrcHis2TOPO®/lacZ control); settings: sodium salt of pHBA 80 μmoles/disk
Source text: as §2

[10] = tested on: E. coli DPD1818 (tolC−) with pTrcHis2TOPO®/lacZ (control); assay: pHBA MIC, 3:4 dilutions, Vogel-Bonner medium with 0.4% glucose; settings: Escherichia coli, 21 h, read-out: pHBA MIC
Source text: (§3) An additional experiment is consistent with the above conclusion. This experiment used E. coli strain MG1655 and strains derived from it, DPD1818 (described above in this example) with a to/C::miniTn10 mutation, […] (described in example 3) with a yhcS::TN<Kan> mutation, and DPD2435 that carries both the to/C::miniTn10 and yhcS::TN<Kan> mutations. The latter strain was constructed using P1clr100Cm mediated transduction of DE112 with phage grown on strain DPD2410 (described in Example 3) and selection for kanamycin resistance. These four strains were each transformed with plasmids pTrcHis2TOPO®/lacZ (Invitrogen) for a control and pDEW668 that expresses the yhcRQP operon (described in Example 2). […] Vogel-Bonner minimal medium with 0.4% glucose was used. […] The inoculum was 50 μl of a 1:500 dilution into Vogel-Bonner medium with 0.4% glucose as a carbon source of overnight cultures of each of the plasmid-containing strains grown in the same medium except with addition of 25 μg/ml Ampicillin.

[11] = tested on: E. coli MG1655 (+) with pTrcHis2TOPO®/lacZ (control); assay: as above; settings: Escherichia coli, read-out: pHBA MIC, control plasmid, 21 hours at 37° C., sodium salt, highest tested 100 mM
Source text: as §3

[12] = tested on: E. coli DPD2435 (yhcS−, tolC−) with pDEW668 (yhcRQP); assay: as above; settings: Escherichia coli, 21 h, read-out: pHBA MIC
Source text: as §3

[13] = tested on: E. coli DPD2433 (yhcS−) with pDEW668 (yhcRQP); assay: as above; settings: Escherichia coli, 21 h, read-out: pHBA MIC
Source text: as §3

[14] = tested on: E. coli DPD2435 (yhcS−, tolC−) with pTrcHis2TOPO®/lacZ (control); assay: as above; settings: Escherichia coli, 21 h, read-out: pHBA MIC
Source text: as §3

[15] = tested on: E. coli DPD2433 (yhcS−) with pTrcHis2TOPO®/lacZ (control); assay: as above; settings: Escherichia coli, 21 h, read-out: pHBA MIC
Source text: as §3

[16] = tested on: E. coli MG1655 (+) with pDEW668 (yhcRQP); assay: as above; settings: Escherichia coli, MG1655, 21 h, read-out: pHBA MIC
Source text: as §3

[17] = tested on: E. coli DPD1818 (tolC−) with pDEW668 (yhcRQP); assay: as above; settings: Escherichia coli, 21 h, read-out: pHBA MIC
Source text: as §3

[18] = tested on: E. coli strain MG1655; assay: pHBA zone of growth inhibition on solidified Vogel-Bonner medium; settings: sodium salt of pHBA 80 μmoles/disk, Vogel-Bonner with glucose
Method: as §4

[19] = Vogel-Bonner 0.4% glucose, average of two experiments
Wherever Growth in LB medium for 3 days at room temperature with pHBA is given: key: ++++ indicates full turbidity; +++ indicates moderate, but visually less than full turbidity; + indicates very slight turbidity; − indicates no turbidity.

O=C(O)c1ccc(O)cc1 [pHBA, para-hydroxybenzoic acid]
degree of growth within the pHBA zone of growth inhibition [1]: clear | pHBA zone of growth inhibition, mm diameter ([1]; average of two experiments): 20.2 mm | Growth in LB medium for 3 days at room temperature with pHBA ([2]; 25 mM pHBA sodium salt): ++++ | Growth in LB medium for 3 days at room temperature with pHBA ([2]; 50 mM pHBA sodium salt): ++++ | Growth in LB medium for 3 days at room temperature with pHBA ([2]; 100 mM pHBA sodium salt): + | Growth in LB medium for 3 days at room temperature with pHBA ([2]; 200 mM pHBA sodium salt): − | Growth in LB medium for 3 days at room temperature with pHBA ([3]; 25 mM pHBA sodium salt): ++++ | Growth in LB medium for 3 days at room temperature with pHBA ([3]; 50 mM pHBA sodium salt): + | Growth in LB medium for 3 days at room temperature with pHBA ([3]; 100 mM pHBA sodium salt): − | Growth in LB medium for 3 days at room temperature with pHBA ([3]; 200 mM pHBA sodium salt): − | Growth in LB medium for 3 days at room temperature with pHBA ([4]; 25 mM pHBA sodium salt): ++++ | Growth in LB medium for 3 days at room temperature with pHBA ([4]; 50 mM pHBA sodium salt): ++++ | Growth in LB medium for 3 days at room temperature with pHBA ([4]; 100 mM pHBA sodium salt): +++ | Growth in LB medium for 3 days at room temperature with pHBA ([4]; 200 mM pHBA sodium salt): − | Growth in LB medium for 3 days at room temperature with pHBA ([5]; 25 mM pHBA sodium salt): ++++ | Growth in LB medium for 3 days at room temperature with pHBA ([5]; 50 mM pHBA sodium salt): ++++ | Growth in LB medium for 3 days at room temperature with pHBA ([5]; 100 mM pHBA sodium salt): − | Growth in LB medium for 3 days at room temperature with pHBA ([5]; 200 mM pHBA sodium salt): − | clarity of pHBA zone of growth inhibition [6]: turbid | pHBA zone of growth inhibition, mm diameter [6, 19]: 9.8 mm | clarity of pHBA zone of growth inhibition [7]: slightly turbid | pHBA zone of growth inhibition, mm diameter [7, 19]: 17.0 mm | clarity of pHBA zone of growth inhibition [8]: turbid | pHBA zone of growth inhibition, mm diameter [8, 19]: 9.5 mm | clarity of pHBA zone of growth inhibition [9]: clear | pHBA zone of growth inhibition, mm diameter [9, 19]: 23.5 mm | MIC [10]: 56 mM (≈ 7.73 mg/mL) | MIC [11]: 100 mM | MIC [12]: 100 mM (≈ 13.8 mg/mL) | MIC [13]: 100 mM (≈ 13.8 mg/mL) | MIC [14]: 13 mM (≈ 1.8 mg/mL) | MIC [15]: 18 mM (≈ 2.49 mg/mL) | MIC [16]: 100 mM (≈ 13.8 mg/mL) | MIC [17]: 100 mM (≈ 13.8 mg/mL) | degree of growth within the pHBA zone of growth inhibition [18]: turbid | pHBA zone of growth inhibition, mm diameter ([18]; average of two experiments): 9.5 mm
